Data from PMC6562610, “Inhibition of Hedgehog Signaling in Fibroblasts, Pancreatic, and Lung Tumor Cells by Oxy186, an Oxysterol Analogue with Drug-Like Properties” (Cells, 2019).
“Also recorded” adds a separate entry of the source.

Assays:
[1] = tested on: Hh target gene Gli1 expression in NIH3T3-E1 cells; test: Inhibition of CAPAN-1 conditioned medium (ligand)-induced Gli1 mRNA expression, Q-RT-PCR; type: cell-based; details: 72 h
Text: (§1) NIH3T3-E1 fibroblasts were obtained from ATCC (Manassas, VA) and cultured, as previously described. CAPAN-1 and PANC-1 human pancreatic cancer cells were obtained from ATCC and cultured in Dulbecco’s Modified Eagle Medium (DMEM) containing 10% heat-inactivated fetal bovine serum (FBS) (Hyclone Laboratories, Logan, UT, USA) and antibiotics, as previously described. The human lung cancer cell lines A549 and H2030 were obtained from ATCC and cultured in RPMI-1640 containing 10% FBS. The human hepatoma cell line HepG2 was obtained from ATCC and cultured in DMEM containing 10% FBS. Mouse embryonic fibroblasts (MEFs) from suppressor of fused (Sufu) null mice (Sufu^−/−) were provided by Dr. Philip Beachy of Stanford University and cultured in DMEM containing 10% FBS. Gant61, SB431542 and vismodegib (GDC0449) were obtained from Cayman Chemical, HPI-1 was obtained from Abcam. For experiments, cells were treated in a medium containing 5% FBS.
Growth medium in confluent […] tissue culture plates of CAPAN-1 cells were replaced with 10 ml of fresh growth medium and cells were incubated for a total of 7 days. Conditioned medium (CM), containing Shh and Ihh, was collected and spun down to remove any detached cells and debris, aliquoted, and stored frozen at −80 °C [37].
(§2) Total RNA was extracted with the RNeasy Plus Mini Kit from Qiagen, according to the manufacturer’s instructions. One microgram of RNA was reverse-transcribed using an iScript Reverse Transcription Supermix from Bio-Rad, to make single-stranded cDNA. The cDNAs were then mixed with Qi SYBR Green Supermix (Bio-Rad, Hercules, CA, USA) for quantitative RT-PCR assay using a Bio-Rad I-cycler IQ quantitative thermocycler. […] Fold changes in gene expression were calculated using the ΔΔCt method. […]
(§3) Figure 3 Inhibition of ligand-induced Hedgehog signaling. […] After 72 h, RNA was extracted and analyzed by Q-RT-PCR for the expression of Hh target genes Gli1 (a,b,d) and Ptch1 (c), and normalized to Oaz1 expression. […] Luciferase activity was measured and normalized to the Renilla luciferase activity. […]

[2] = tested on: Smo mediated activation of Hh signaling in NIH3T3 cells; test: Inhibition of Hh signaling from allosteric activation of Smo by Oxy133, Q-RT-PCR; type: cell-based, mouse; details: 72 h
Description: Total RNA was extracted with the RNeasy Plus Mini Kit from Qiagen, according to the manufacturer’s instructions. One microgram of RNA was reverse-transcribed using an iScript Reverse Transcription Supermix from Bio-Rad, to make single-stranded cDNA. The cDNAs were then mixed with Qi SYBR Green Supermix (Bio-Rad, Hercules, CA, USA) for quantitative RT-PCR assay using a Bio-Rad I-cycler IQ quantitative thermocycler. All PCR samples were prepared in triplicate wells in a 96-well plate. After 40 cycles of PCR, melt curves were examined in order to ensure primer specificity. Fold changes in gene expression were calculated using the ΔΔCt method. Primers used for mouse were as follows: Oaz1 (5’-CCACTGCTTCGCCAGAGAG-3’) and (5’-CCCGGACCCAGGTTACTA-3’), Gli1 (5’-[…]-3’ and 5’-[…]-3’), Ptch1 (5’-CCATCGGCGACAAGAACC-3’ and 5’-[…]-3’), Hip (5’-[…]-3’ and 5’-[…]-3’), and Abca1 (5’-[…]-3’ and 5’-[…]-3’). […]
as §3

[3] = tested on: Gli1 expression in PANC-1 cells; test: Inhibition of baseline Gli1 expression in PANC-1 cells, Q-RT-PCR; type: cell-based, human; details: 10 µM, 48 h
Text: as §1
as §2, with “thermocycler. All PCR samples were prepared in triplicate wells in a 96-well plate.” for “thermocycler.”
(§4) Figure 4 Inhibition of Gli and Shh expression in (a) PDAC (PANC-1) and (b,c) human lung cancer cells (A549 and H2030, respectively) by Oxy186. Cells were treated with the compounds as indicated in DMEM or RPMI 1640 containing 5% FBS for (a) 48 or (b,c) 72 hours, then RNA was extracted and analyzed by Q-RT-PCR for the expression of Gli1 and normalized to GAPDH expression. (d) CAPAN-1 cells were treated with the compounds, as indicated, in DMEM containing 5% FBS for 72 h, then RNA was extracted and analyzed by Q-RT-PCR for the expression of Shh and normalized to GAPDH expression. […]

[4] = tested on: Gli1 expression in H2030 cells; test: Inhibition of Gli1 expression in H2030 cells, Q-RT-PCR; type: cell-based, human; details: 10 µM, 72 h
Text: as §1
as §2, with “thermocycler. All PCR samples were prepared in triplicate wells in a 96-well plate.” for “thermocycler.”
as §4

[5] = tested on: Hh pathway target genes Gli1, Ptch1, and Hip in Sufu-/- mouse embryonic fibroblasts; test: Inhibition of Hh target gene expression in Sufu-/- MEFs, Q-RT-PCR; type: cell-based; details: 10 µM, 72 h
Text: as §1, with “Gant61, SB431542 and vismodegib (GDC0449) were obtained from Cayman Chemical, HPI-1 was obtained from Abcam. For experiments, cells were treated in a medium containing 5% FBS.” left out
as §2, with “One microgram of RNA was reverse-transcribed using an iScript Reverse Transcription Supermix from Bio-Rad, to make single-stranded cDNA.” left out
Figure 5 Oxy186 acts downstream of Smo. […] After 72 h, RNA was extracted and analyzed by Q-RT-PCR for the expression of Hh target genes Gli1, Ptch1, and Hip, normalized to Oaz1 expression. […] Luciferase activity was measured and normalized to the Renilla luciferase activity. […]

[6] = Metabolic stability in human liver microsomes; type: in vitro ADME

## C[C@]12CC[C@H](O)C[C@@H]1CC[C@@H]1[C@@H]2CC[C@@]2(C)[C@H]1CC[C@@H]2[C@](C)(O)CCc1ccc(F)cc1 [Oxy186, (3S,5S,8R,9S,10S,13S,14S,17S)-17-((R)-4-(4-fluorophenyl)-2-hydroxybutan-2-yl)-10,13-dimethylhexadecahydro-1H-cyclopenta[a]phenanthren-3-ol]
[1]; NIH3T3-E1 cells, CAPAN-1 CM
  Inhibition of ligand-induced Gli1 mRNA expression: robustly inhibited; also recorded: greater Hh signaling inhibitory efficacy than Oxy16
[1]; NIH3T3 cells activated by CAPAN-1 CM Hh ligands
  IC50: 600 nM
[2]
  Suppression of Hh signaling from allosteric activation of Smo by Oxy133: significantly suppressed
[3]
  Inhibition of high baseline expression of Gli1: significantly inhibited
[4]
  Inhibition of expression of Gli1: significantly inhibited
[5]
  Inhibition of high baseline expression of Hh pathway target genes Gli1, Ptch1, and Hip: significant inhibition
[6]
  HLM, Half-Life: 45 min
[6]; 60 min, read-out: HLM, % Remaining after 60 min
  remaining at 1 h: 40%
[6]; human, liver microsomes, read-out: HLM, Half-Life
  half-life: 43 min
